Source: ChEMBL document CHEMBL1130030, “Tyrosine kinase inhibitors. 11. Soluble analogues of pyrrolo- and pyrazoloquinazolines as epidermal growth factor receptor inhibitors: synthesis, biological evaluation, and modeling of the mode of binding” (J Med Chem, 1997)
Blank lines part the entries; values can stand above or below the compound they belong to.

How the values were obtained:
[1] = target: T1, Epidermal growth factor receptor (Homo sapiens, UniProt P00533); assay: Inhibition of autophosphorylation of epidermal growth factor receptor prepared from human A431 carcinoma cells.
[2] = target: T1, Epidermal growth factor receptor; assay: Inhibition of the phosphorylation of a random polyglutamic acid/tyrosine copolymer by human epidermal growth factor receptor(EGFR) prepared from human A431 carcinoma cells

T1 sequence (P00533 whole entry): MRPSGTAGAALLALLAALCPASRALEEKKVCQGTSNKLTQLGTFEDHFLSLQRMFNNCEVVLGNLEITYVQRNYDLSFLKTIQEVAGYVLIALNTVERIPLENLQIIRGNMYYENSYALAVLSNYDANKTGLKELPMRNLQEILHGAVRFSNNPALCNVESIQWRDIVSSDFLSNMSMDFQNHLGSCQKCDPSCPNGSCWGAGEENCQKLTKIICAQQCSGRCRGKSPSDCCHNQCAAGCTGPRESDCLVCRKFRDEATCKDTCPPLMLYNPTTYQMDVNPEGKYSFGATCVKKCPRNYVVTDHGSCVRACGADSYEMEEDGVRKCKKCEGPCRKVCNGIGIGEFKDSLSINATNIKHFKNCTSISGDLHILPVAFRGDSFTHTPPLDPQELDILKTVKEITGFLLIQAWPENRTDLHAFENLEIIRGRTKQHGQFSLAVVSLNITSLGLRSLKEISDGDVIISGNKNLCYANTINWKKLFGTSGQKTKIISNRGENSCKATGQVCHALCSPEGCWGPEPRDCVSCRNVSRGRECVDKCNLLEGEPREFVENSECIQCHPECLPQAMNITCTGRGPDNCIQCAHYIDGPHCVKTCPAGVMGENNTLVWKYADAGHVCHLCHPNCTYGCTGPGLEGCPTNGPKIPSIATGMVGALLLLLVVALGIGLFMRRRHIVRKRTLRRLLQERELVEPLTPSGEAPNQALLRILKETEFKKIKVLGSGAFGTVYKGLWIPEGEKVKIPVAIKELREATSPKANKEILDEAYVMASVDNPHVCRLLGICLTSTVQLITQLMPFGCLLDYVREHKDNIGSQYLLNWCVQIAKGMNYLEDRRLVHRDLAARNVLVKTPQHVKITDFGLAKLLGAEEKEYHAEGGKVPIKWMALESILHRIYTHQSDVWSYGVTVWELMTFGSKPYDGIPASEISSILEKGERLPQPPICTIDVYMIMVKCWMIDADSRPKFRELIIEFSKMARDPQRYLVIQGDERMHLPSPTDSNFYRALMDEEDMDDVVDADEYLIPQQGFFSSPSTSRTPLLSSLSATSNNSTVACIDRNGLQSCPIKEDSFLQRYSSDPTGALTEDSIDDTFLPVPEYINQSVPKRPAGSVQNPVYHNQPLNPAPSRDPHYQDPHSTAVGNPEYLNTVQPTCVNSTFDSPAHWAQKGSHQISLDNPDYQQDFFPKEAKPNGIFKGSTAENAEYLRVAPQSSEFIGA

Structure (SMILES): COC(=O)CN(C)Cc1c[nH]c2cc3ncnc(Nc4cccc(Br)c4)c3cc12
IC50 [1]: 9.6 nM | IC50 [2]: 3.4 nM

Structure (SMILES): Cc1nc(Nc2cccc(Br)c2)c2ccccc2n1
IC50 [2]: > 10000 nM

Structure (SMILES): Brc1cccc(Nc2nccc3ccccc23)c1
IC50 [2]: > 100000 nM

Structure (SMILES): Brc1cccc(Nc2ncnc3cc4[nH]ccc4cc23)c1
IC50 [1]: 22 nM

Structure (SMILES): CN(CC(=O)O)Cc1c[nH]c2cc3ncnc(Nc4cccc(Br)c4)c3cc12
IC50 [1]: 584 nM | IC50 [2]: 0.72 nM

Structure (SMILES): CN(C)CCN(C)Cc1c[nH]c2cc3ncnc(Nc4cccc(Br)c4)c3cc12
IC50 [1]: 81 nM | IC50 [2]: 7.5 nM

Structure (SMILES): Brc1cccc(Nc2ncnc3cc4[nH]cc(CN5CCOCC5)c4cc23)c1
IC50 [1]: 9.6 nM | IC50 [2]: 4.8 nM

Structure (SMILES): CN(C)Cc1c[nH]c2cc3ncnc(Nc4cccc(Br)c4)c3cc12
IC50 [1]: 9.7 nM | IC50 [2]: 2.6 nM

Structure (SMILES): Brc1cccc(Nc2ncnc3cc4c(cnn4CCCN4CCOCC4)cc23)c1
IC50 [1]: 77 nM | IC50 [2]: 8.8 nM

Structure (SMILES): COc1cccc2c(Nc3cccc(Br)c3)ncnc12
IC50 [2]: > 10000 nM

Next, values leading:

IC50 [1]: 1780 nM | IC50 [2]: 5.1 nM
Structure (SMILES): O=C(O)Cn1ccc2cc3c(Nc4cccc(Br)c4)ncnc3cc21

IC50 [1]: 262 nM | IC50 [2]: 40 nM
Structure (SMILES): CN(C)CCn1ncc2cc3c(Nc4cccc(Br)c4)ncnc3cc21

IC50 [1]: 230 nM | IC50 [2]: 21 nM
Structure (SMILES): CN(C)CCCn1ccc2cc3c(Nc4cccc(Br)c4)ncnc3cc21

IC50 [1]: 49 nM | IC50 [2]: 1.6 nM
Structure (SMILES): OCC(O)Cn1ccc2cc3c(Nc4cccc(Br)c4)ncnc3cc21 (configuration not stated)

IC50 [1]: 20 nM
Structure (SMILES): Brc1cccc(Nc2ncnc3cc4[nH]ncc4cc23)c1

IC50 [1]: 22 nM | IC50 [2]: 0.8 nM
Structure (SMILES): Cn1ccc2cc3c(Nc4cccc(Br)c4)ncnc3cc21

IC50 [1]: 318 nM | IC50 [2]: 12 nM
Structure (SMILES): OCC(O)Cn1ncc2cc3c(Nc4cccc(Br)c4)ncnc3cc21 (configuration not stated)

IC50 [1]: 16 nM | IC50 [2]: 3.7 nM
Structure (SMILES): Brc1cccc(Nc2ncnc3cc4c(ccn4CCN4CCOCC4)cc23)c1

IC50 [1]: 13 nM | IC50 [2]: 0.37 nM
Structure (SMILES): Cn1ncc2cc3c(Nc4cccc(Br)c4)ncnc3cc21

IC50 [1]: 145 nM | IC50 [2]: 41 nM
Structure (SMILES): CN(C)CCn1ccc2cc3c(Nc4cccc(Br)c4)ncnc3cc21

IC50 [1]: 135 nM | IC50 [2]: 3.5 nM
Structure (SMILES): OCCN(CCO)Cc1c[nH]c2cc3ncnc(Nc4cccc(Br)c4)c3cc12
